In patent US20050059588A1, “Peptides which generate antibodies resulting in lysis of pathologically adherent erythrocytes” (REGENTS OF THE UNIVERSITY OF CALIFORNIA, priority 2003, published 2005):

What was measured:
CD36 [1] = assay: Cytoadherence assay: binding of infected erythrocytes made from AE1-modified erythrocytes to immobilized CD36; assay type: cell-based, human; settings: for binding of treated IEs to CD36, in words: immobilized CD36; for percentage of bound IEs/mm^2 as compared to untreated cells, CD36: uninfected erythrocytes treated (0.5 mg/ml chymotrypsin, 100 μM DIDS or 0.25 mg/ml FMA), then infected, harvested after 40 hr, mean ±SD of triplicate
Procedure: (§1) Uninfected erythrocytes were treated with either 0.25 mg/ml fluorescein maleimide (FMA) (1 hr at 25° C.), 100 μM DIDS (1 hr at 37° C.) or with 0.5 mg/ml chymotrypsin (0.5 hr at 37° C.). Modified erythrocytes were infected and after 40 hr, mature stages were harvested and a standard cytoadherence assay using CD36 or TSP immobilized on slides was carried out. The numbers are the percentage of bound IEs/mm^2 as compared to untreated cells. Each value represents the mean ±SD of triplicate determinations.
(§2) Partially purified CD36 (CD36 fraction) was obtained from human platelets essentially by the method of Tandon et al., J. Biol Chem, 264:7570 (1989). However, the last purification step, using Ultrogel AcA-44, was omitted. TSP was purified as described in Layler et al., J Biol Chem, 253:8609 (1978). To remove excess amount of Triton X-100 in CD36 solution, 5 ml of a CD36 solution containing 0.1% Triton X-100 (initial concentration 268 μg protein/ml) was incubated with 0.5 g of SM-2 beads (Bio-Rad, Hercules, Calif.) at room temperature for 2 h and dialyzed against 500 ml of distilled water. Five microliters of the dialyzed solution was mounted onto multi-well glass slides, and incubated at 4° C. overnight. To immobilize TSP, 5 μl of TSP solution (50 μg/ml in 50 mM Bis-Tris, 100 mM NaCl, 25 mM calcium lactate, pH 7.4 (BTC)) was spotted on plastic slides (Permanox® plastic, Nunc, Neperville, Ill.) and incubated at 4° C. overnight. After removal of the solution by gentle aspiration, CD36- and TSP-immobilized spots were blocked with 1% BSA in phosphate buffered saline (PBS) at room temperature for 1 h.
(§3) Cytoadherence assays were performed as described in Crandall et al., Exp Parasitol, 73:362 (1991) (“Crandall 1991”). In the case of inhibition assay using peptides, the spots of immobilized protein were pretreated with 10 μl of peptide solution (200 μg/ml) in Bis-Tris buffer (50 mM Bis-Tris, 100 mM NaCl, 2 mM CaCl2, pH 6.6 for CD36; 50 mM Bis-Tris, 100 mM NaCl, 2 mM CaCl2, pH 7.4 for 677 cells; BTC for TSP) at 37° C. for 1 h. After removal of the peptide solution, the slides were placed in individual compartments of a partitioned plastic box containing 7 ml Bis-Tris buffer. Fifty microliters of packed red cells (5-10% parasitemia) was added to each compartment of the plastic box. After incubation at 37° C. for 90 min with gentle rocking, the red cell suspension was carefully aspirated. The slides were rinsed by adding 7 ml of the buffer and 5 min of rocking after which time the buffer was aspirated. The slides were washed three times, fixed, and stained as described in Crandall 1991. The number of bound infected red cells/mm^2 area of immobilized protein was counted by light microscopy.

TSP = assay: Cytoadherence assay: binding of infected erythrocytes made from AE1-modified erythrocytes to immobilized TSP; assay type: cell-based; settings: for binding of treated IEs to TSP, in words: immobilized TSP; for percentage of bound IEs/mm^2 as compared to untreated cells, TSP: uninfected erythrocytes treated (0.5 mg/ml chymotrypsin, 100 μM DIDS or 0.25 mg/ml FMA), then infected, harvested after 40 hr, mean ±SD of triplicate
Procedure: as §1, §2, §3

CD36 [2] = target: T1, CD36 (Homo sapiens, UniProt P16671); assay: Competitive binding assay: inhibition of IE binding to immobilized CD36 by DBR peptide; assay type: cell-based; settings: immobilized CD36 incubated with peptide before cytoadherence assay
T1 construct: Partially purified CD36 (CD36 fraction) was obtained from human platelets; from tissue; host or cells: human platelets
T1 sequence (P16671 whole entry): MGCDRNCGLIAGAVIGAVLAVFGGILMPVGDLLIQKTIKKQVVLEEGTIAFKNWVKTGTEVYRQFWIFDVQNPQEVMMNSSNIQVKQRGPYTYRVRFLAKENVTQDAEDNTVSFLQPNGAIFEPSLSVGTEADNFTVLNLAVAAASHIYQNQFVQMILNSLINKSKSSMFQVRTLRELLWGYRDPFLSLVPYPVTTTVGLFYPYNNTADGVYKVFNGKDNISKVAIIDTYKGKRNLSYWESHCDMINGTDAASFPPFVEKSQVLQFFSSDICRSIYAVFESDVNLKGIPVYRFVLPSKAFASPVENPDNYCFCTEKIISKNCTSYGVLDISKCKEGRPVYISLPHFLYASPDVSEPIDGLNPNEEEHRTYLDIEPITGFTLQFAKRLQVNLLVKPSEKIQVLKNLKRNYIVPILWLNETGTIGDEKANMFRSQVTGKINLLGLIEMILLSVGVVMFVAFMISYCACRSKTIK
Procedure: FIG. 3. […] Immobilized CD36 was incubated with the indicated concentrations of DBR peptide, and then a cytoadherence assay was conducted as shown in the legend of Table 1. Each value represents the mean ±SD of triplicate determinations.
as §2, with “After removal of the solution by gentle aspiration, CD36- and TSP-immobilized spots were blocked with 1% BSA in phosphate buffered saline (PBS) at room temperature for 1 h.” left out
Cytoadherence assays were performed as described in Crandall et al., Exp Parasitol, 73:362 (1991) (“Crandall 1991”). […] The number of bound infected red cells/mm^2 area of immobilized protein was counted by light microscopy.

[3] = system: immunoglobulins from individuals living in a malaria endemic region; assay: ELISA: binding of IE-surface-eluted human immunoglobulins to immobilized DBR peptide; settings: surface bound immunoglobulins eluted from IEs
Procedure: FIG. 4. Recognition of the DBR peptide by immunoglobulins from individuals living in a malaria endemic region (“immunes”). Human sera from either control or “immunes” were added to human erythrocytes infected with P. falciparum (“IEs”) and after incubation, the surface bound immunoglobulins were eluted using isotonic glycine buffer pH 3.0. Biotin labeled peptides were immobilized on 96 well plates using streptavidin, and the specific binding of the surface eluted immunoglobulins to the peptides was determined using alkaline phosphatase conjugated anti-human IgG.
To explore whether DBR is exposed as a consequence of parasite development, sera from individuals living in a region where malaria is endemic or from a control group was incubated with intact live IEs and the surface bound immunoglobulins eluted by a low pH treatment.

[4] = Tolerability in animals immunized with the peptide; assay type: in vivo, rabbit
[5] = target: T2, CD36 transfected CHO cells (Homo sapiens, UniProt P16671); assay: Interaction of biotin labeled DBR peptide with CD36 transfected CHO cells; assay type: binding; settings: 40 μg/ml biotin labeled peptide, 1 hour at 37° C.
T2 construct: expressed in transfected cells; host or cells: CHO cells
T2 sequence (P16671 whole entry): as above
Procedure: FIG. 2. Interaction of DBR peptide with CD36 transfected CHO cells. Cells were incubated for 1 hour at 37° C. with 40 μg/ml biotin labeled peptide, followed by 20 μg/ml Alexa-conjugated streptavidin.
To confirm that the DIDS binding region (DBR) of AE1 is involved in IE adhesion, two different kinds of in vitro assays were carried out.

Compound: O=S(=O)(O)c1cc(N=C=S)ccc1C=Cc1ccc(N=C=S)cc1S(=O)(=O)O [DIDS, 4,4′-diisothiocyanatostilbene-2,2′-disulfonic acid]
- binding of treated IEs to CD36, in words (CD36 [1]): lower binding to CD36
- percentage of bound IEs/mm^2 as compared to untreated cells, CD36 (CD36 [1]): 33.2 ± 4.1 percentage
- binding of treated IEs to TSP, in words (TSP): not to TSP
- percentage of bound IEs/mm^2 as compared to untreated cells, TSP (TSP): 93.5 ± 35.9 percentage

Compound: O=C1OC2(c3ccc(O)cc3Oc3cc(O)ccc32)c2ccc(N3C(=O)C=CC3=O)cc21 [FMA, Fluorescein maleimide]
- binding of treated IEs to CD36, in words (CD36 [1]): did not reduce the binding
- percentage of bound IEs/mm^2 as compared to untreated cells, CD36 (CD36 [1]): 135.1 ± 12.9 percentage
- binding of treated IEs to TSP, in words (TSP): did not reduce the binding
- percentage of bound IEs/mm^2 as compared to untreated cells, TSP (TSP): 180.9 ± 26.0 percentage

Compound: Chymotrypsin
- binding of treated IEs to CD36, in words (CD36 [1]): significant reduction
- percentage of bound IEs/mm^2 as compared to untreated cells, CD36 (CD36 [1]): 10.2 + 17.5 percentage
- binding of treated IEs to TSP, in words (TSP): largely unaffected
- percentage of bound IEs/mm^2 as compared to untreated cells, TSP (TSP): 81.0 ± 17.7 percentage

Compound: YETFSKLIKIFQDH [DBR peptide]
- inhibition of IE binding to immobilized CD36 (CD36 [2]): Concentration dependent inhibition
- inhibition of IE binding to immobilized CD36 (CD36 [2]; listed as DBR peptides): inhibited the binding
- recognition of the DBR by immunoglobulins of individuals living in an endemic area [3]: strong humoral immune response
- anemia or other ill effects in immunized animals [4]: no anemia or other ill effects
- interaction with CD36 transfected CHO cells [5]: interacted with high affinity and specificity
